Laboratory results published in US8518946B2, “Salts of (R)-7-[3-amino-4-(2,4,5-trifluorophenyl)butanoyl]-3-trifluoromethyl-5,6,7,8-tetrahydroimidazo[1,5-a] pyrazine-1-carboxylic acid, preparation method and medical use thereof” (Jiangsu Hengrui Medicine Co., Ltd., priority 2009, dated 2013).
Values after ≈ are worked out from the molar mass of the structure shown. Like-named read-outs stand apart in the source and are kept apart here.

How the values were obtained:
[1] = Solubility experiment in four systems; assay type: physicochemical
Procedure: According to the conventional solubility measurement, the solubility of the test samples were determined in four different systems: phosphate buffer solution (PBS, pH=7.4), methanol, 0.1% hydrochloric acid and water.

DPP-IV = target: T1, DPP-IV (Homo sapiens, UniProt P27487); test: DPP-IV inhibition, Promega DPPIV-Glo Protease Assay; assay type: biochemical
T1 construct: purchased Calbiochem 317630
Procedure: (§1) The compounds of the present invention were tested to determine their DPP-IV, DPP-VIII, DPP-IX inhibition activity according to the following methods. The half inhibition concentrations IC50 (the concentration of the test compound showing 50% inhibition to the enzyme activity) of each compound were determined by reaction test and calculation of the mixture of fixed amounts of enzyme and substrate with several different concentrations of the test compounds.
(§2) The compounds of the present invention were tested to determine the DPP-IV, DPP-VIII, DPP-IX inhibition activity in the following tests using Promega DPPIV-Glo™ Protease Assay (Cat No. G8350/G8351) Kit, wherein:
a. DPP-IV enzyme bought from Calbiochem, Catalog no. 317630;
(§3) The preparation procedure of the conventional reagent such as DPPIV-Glo buffer, luciferin reagents needed in the test and the detail operation of the test can refer to the specifications of the kits. The assay was carried out as following steps:
(§4) The tested compounds were dissolved in DMSO to prepare a series of different concentrations of the test compound solution. DPPIV-Glo buffer and the freezing luciferin detection reagent were equilibrated to room temperature. The luciferin detection reagent was dissolved in moderate buffer in a brown flask to form a solution. Then DPP-IV-Glo. was dissolved in ultrapure water to give the appropriate concentration. The substrate solution and the luciferin detection reagent solution were mixed sufficiently in an appropriate ratio (the ratio of the invention is 1:49), and the mixture was layed at room temperature for 30-60 minutes. Tris buffer (2 mM, pH 8.0), the test compounds and DPP-IV (DPP-VIII or DPP-IX) were mixed and then transferred to a 96-well plate. Each test contains double-well of three-well control. The same volume of DMSO was added to the negative control and blank control. Then the 96-well plate was added with mixed solution of luciferin detection reagent and substrate to initiate the reaction. The 96-wells plate was incubated at room temperature on a plate shaker for 40 minutes after sealed. The strength of the fluorescent signal in each well was determined by microplate reader and the inhibition rate to the enzyme of the compound at this concentration was calculated by the formula as following: inhibitory rate: IR=[1−(S−B)/(N−B)]*100% • S: value of the sample • B: value of the blank control • N: value of the negative control
(§5) IC50 of the test compounds can be calculated by the inhibition rate at different concentration.

DPP-VIII = target: T2, DPP-VIII (Homo sapiens, UniProt Q6V1X1); test: DPP-VIII inhibition, Promega DPPIV-Glo Protease Assay; assay type: biochemical; details: read-out: IC50 DPP8
T2 construct: purchased Bioscience 80080
Procedure: as §1, §2
b. DPP-VIII enzyme bought from Bioscience, Catalog no. 80080;
as §3, §4, §5

DPP-IX = target: T3, DPP-IX (Homo sapiens, UniProt Q86TI2); test: DPP-IX inhibition, Promega DPPIV-Glo Protease Assay; assay type: biochemical; details: read-out: IC50 DPP9
T3 construct: purchased Bioscience 80090
Procedure: as §1, §2
c. DPP-IX enzyme bought from Bioscience, Catalog no. 80090.
as §3, §4, §5

[2] = Pharmacokinetics assay in rats (LC/MS/MS plasma concentration); assay type: in vivo, SD rats; details: for F: intragastric 3.0 mg/kg (as free base), absolute bioavailability from AUC0-t vs vein injection
Excerpt: The compound of Example 3 was administrated intragastrically or tail vein injection to rats and the compounds of Example 1-4, Example 9 and Example 11-12 were administrated intragastrically to determine the drug concentration in plasma at different time points by LC/MS/MS measurement. The pharmacokinetics of the compounds of the present invention was studied and evaluated in rats. And the oral absolute bioavailability was investigated.
Compounds of Example 1-4, Example 9 and Example 11-12.
[…] healthy adult SD rats, male and female in half, were purchased from SINO-BRITSH SIPPR/BK LAB.ANIMAL LTD., CO, License number: SCXK (Shanghai) 2008-0016.
Vein injection group: the proper weighed test compound was dissolved in 0.5 mL of DMSO by ultrasound and then diluted with normal saline to 15 mL to form a 0.3 mg/mL solution.
Intragastrically administered group: the proper weighed test compound was dissolved in 0.5% CMC-Na by ultrasound to form a 0.3 mg/mL of suspension.
32 healthy adult SD rats, male and female in half, were divided into 8 groups so that each group consisted 4 rats. After an overnight fast, the rats were tail vein injected of the compound of Example 3 and intragastrically administered the compound of Example 3 and the salt thereof, at a dose of 3.0 mg/kg (calculated as the free base form) and a volume of 10 mL/kg.
Blood samples (0.2 mL) of the rats in vein injection group were taken from eye socket at pre administration and at 2, 15, 30 minutes and 1.0, 2.0, 4.0, 6.0, 8.0, 12.0, 24.0 hours post administration, which were stored in heparinized tubes and centrifuged for 10 minutes at 3,500 rpm. The plasma samples were stored at −20° C. until analysis. The rats were fed 2 hours after administration.
Blood samples of the rats in intragastrically administered group were taken at pre administration and at 0.5, 1.0, 2.0, 3.0, 4.0, 6.0, 8.0, 12.0, 24.0 hours post administration. The samples were treated with the same method as mentioned above.
50 μL of internal standard solution and 150 μL of methanol were added to 50 μL of rat plasma obtained at various time points after administration. Then the mixture was mixed for 3 minutes using a vortexer and centrifuged for 10 minutes at 13,500 rpm. 10 μL of the supernatant was analyzed by LC/MS/MS.
The compartmental model of pharmacokinetics was fitted for the test compounds and the major pharmacokinetic parameters were calculated by DAS 2.0 software in which Cmax and tmax were the actually measured values. The absolute bioavailability was calculated by AUC0-t taken from post administration and vein injection.

normal ICR mice = test: Hypoglycemic effect, oral glucose tolerance in normal ICR mice; assay type: in vivo; details: 10 mg/kg by gavage, glucose 4 g/kg 15 minutes after administration
Procedure: To observe the effects on oral glucose tolerance of the compounds of Example 1-4 and Example 8-12 in normal ICR mice (SINO-BRITSH SIPPR/BK LAB.ANIMAL LTD., CO), the hypoglycemic effects in vivo have been evaluated using blood-glucose meter to measure and analyze the sugar content of the samples at different time points during 2 hours. The samples were taken from the mouse's tail.
The administration dose was 10 mg/kg, and the blank was administered with water. Both groups contained 5% DMSO.
The mice were administered by gavage. 4 g/kg of 10% glucose solution was administered (0.8 mL to each mice) 15 minutes after administration.
The mice were administered according to above dose (the blank group was administrated with 5% DMSO aqueous solution) and the blood sugar value was measured (−15 minutes).
15 minutes after administration, the mice were administered of 4 g/kg of 20% glucose solution and the values of blood sugar were tested by Roche ACCU-CHEK at 0, 15, 30, 45, 60, 120 minutes.

[3] = intragastric 3.0 mg/kg, phosphate
[4] = both sexes, SD, rat, plasma, po, 3 mg/kg, intragastric 3.0 mg/kg
[5] = both sexes, SD, rat, plasma, po, 3 mg/kg, intragastric 3.0 mg/kg, read-out: MRT
[6] = both sexes, SD, rat, plasma, po, 3 mg/kg, intragastric 3.0 mg/kg, read-out: Tmax

T3 sequence (Q86TI2 whole entry): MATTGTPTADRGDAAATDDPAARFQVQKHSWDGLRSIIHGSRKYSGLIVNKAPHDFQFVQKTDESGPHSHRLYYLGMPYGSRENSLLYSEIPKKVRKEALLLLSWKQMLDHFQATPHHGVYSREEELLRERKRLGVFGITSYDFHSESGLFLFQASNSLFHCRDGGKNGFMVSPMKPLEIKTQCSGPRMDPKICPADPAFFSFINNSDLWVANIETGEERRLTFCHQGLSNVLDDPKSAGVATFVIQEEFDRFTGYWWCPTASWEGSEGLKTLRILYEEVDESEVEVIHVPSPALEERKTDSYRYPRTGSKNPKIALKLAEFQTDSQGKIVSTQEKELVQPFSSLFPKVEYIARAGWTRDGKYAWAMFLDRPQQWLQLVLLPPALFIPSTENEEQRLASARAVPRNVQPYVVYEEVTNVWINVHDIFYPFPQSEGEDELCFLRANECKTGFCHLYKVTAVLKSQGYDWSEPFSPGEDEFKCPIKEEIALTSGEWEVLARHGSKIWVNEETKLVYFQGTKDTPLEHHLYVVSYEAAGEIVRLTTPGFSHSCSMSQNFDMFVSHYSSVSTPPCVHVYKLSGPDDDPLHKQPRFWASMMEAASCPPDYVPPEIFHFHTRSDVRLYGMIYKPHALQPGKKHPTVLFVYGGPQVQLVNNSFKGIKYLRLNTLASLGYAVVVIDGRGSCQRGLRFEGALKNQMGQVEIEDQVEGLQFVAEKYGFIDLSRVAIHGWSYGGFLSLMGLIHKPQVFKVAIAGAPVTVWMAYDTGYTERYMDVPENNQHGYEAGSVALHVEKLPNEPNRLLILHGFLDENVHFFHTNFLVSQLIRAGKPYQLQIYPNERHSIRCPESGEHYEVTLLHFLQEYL
T1 sequence (P27487 whole entry): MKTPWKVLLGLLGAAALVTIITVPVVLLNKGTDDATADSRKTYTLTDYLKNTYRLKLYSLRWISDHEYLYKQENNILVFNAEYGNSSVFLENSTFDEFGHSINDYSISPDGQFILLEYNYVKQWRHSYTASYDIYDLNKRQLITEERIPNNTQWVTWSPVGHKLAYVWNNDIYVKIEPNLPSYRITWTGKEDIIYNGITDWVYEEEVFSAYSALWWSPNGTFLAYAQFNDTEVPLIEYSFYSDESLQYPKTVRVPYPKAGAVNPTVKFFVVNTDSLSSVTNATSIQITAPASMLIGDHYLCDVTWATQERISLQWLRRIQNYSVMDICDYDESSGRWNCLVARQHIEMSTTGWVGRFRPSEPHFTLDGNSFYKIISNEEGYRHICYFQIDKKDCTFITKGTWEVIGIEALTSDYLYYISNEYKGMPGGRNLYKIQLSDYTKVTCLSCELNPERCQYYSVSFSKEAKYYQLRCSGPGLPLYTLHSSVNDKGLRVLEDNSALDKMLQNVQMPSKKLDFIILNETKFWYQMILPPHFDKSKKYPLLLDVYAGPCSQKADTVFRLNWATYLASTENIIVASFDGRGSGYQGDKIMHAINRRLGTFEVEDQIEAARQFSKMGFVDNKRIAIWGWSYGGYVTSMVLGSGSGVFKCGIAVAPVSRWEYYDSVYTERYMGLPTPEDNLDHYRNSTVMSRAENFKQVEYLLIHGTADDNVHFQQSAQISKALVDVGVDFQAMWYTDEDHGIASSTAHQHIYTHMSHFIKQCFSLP
T2 sequence (Q6V1X1 whole entry): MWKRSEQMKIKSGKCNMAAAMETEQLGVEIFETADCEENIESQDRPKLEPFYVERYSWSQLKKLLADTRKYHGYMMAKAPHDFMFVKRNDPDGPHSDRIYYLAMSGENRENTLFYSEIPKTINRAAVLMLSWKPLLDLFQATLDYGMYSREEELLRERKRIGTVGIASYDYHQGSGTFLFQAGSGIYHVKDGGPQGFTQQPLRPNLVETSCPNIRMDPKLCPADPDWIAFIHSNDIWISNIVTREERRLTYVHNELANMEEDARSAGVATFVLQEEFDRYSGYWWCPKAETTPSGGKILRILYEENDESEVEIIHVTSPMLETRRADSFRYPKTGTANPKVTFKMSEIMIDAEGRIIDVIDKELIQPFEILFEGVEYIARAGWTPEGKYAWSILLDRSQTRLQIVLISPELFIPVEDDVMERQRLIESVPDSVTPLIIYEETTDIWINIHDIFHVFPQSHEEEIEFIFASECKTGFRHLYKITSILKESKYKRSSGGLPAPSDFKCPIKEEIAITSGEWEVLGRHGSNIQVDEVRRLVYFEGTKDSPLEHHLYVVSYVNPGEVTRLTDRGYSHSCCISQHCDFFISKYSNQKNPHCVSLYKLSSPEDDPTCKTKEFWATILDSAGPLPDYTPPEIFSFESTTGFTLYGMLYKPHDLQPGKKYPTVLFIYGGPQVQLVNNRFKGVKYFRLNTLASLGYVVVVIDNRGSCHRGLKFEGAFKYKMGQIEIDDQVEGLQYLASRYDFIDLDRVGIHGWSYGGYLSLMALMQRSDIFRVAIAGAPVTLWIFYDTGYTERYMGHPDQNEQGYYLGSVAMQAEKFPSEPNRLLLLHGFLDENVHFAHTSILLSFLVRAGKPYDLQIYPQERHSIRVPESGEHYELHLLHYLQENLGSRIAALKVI

| Compound | IC50 (DPP-IV) [µM] | IC50 (DPP-VIII) [µM] | IC50 (DPP-IX) [µM] | Solubility Value, 0.1% HCl ([1]; 0.1% hydrochloric acid) [mg/mL] | Solubility Value, PBS (pH 7.4) ([1]; PBS pH 7.4) [mg/mL] | Solubility Value, methanol ([1]; methanol) [mg/mL] | Solubility Value, water ([1]; water) [mg/mL] | AUC(0-t) ([2]; intragastric 3.0 mg/kg) [ng·h/mL] | CL/F ([2]; intragastric 3.0 mg/kg) [mL/min/kg] | Cmax ([2]; intragastric 3.0 mg/kg) [ng/mL] | F [2] [%] | Hypoglycemic rate of blood sugar of 30 minutes after administration (normal ICR mice; 10 mg/kg) [%] | half-life [2, 4] [h] | MRT [2, 5] [h] | Tmax [2, 6] [h] | further results |
| --- | --- | --- | --- | --- | --- | --- | --- | --- | --- | --- | --- | --- | --- | --- | --- | --- |
| N[C@@H](CC(=O)N1CCn2c(C(F)(F)F)nc(C(=O)O)c2C1)Cc1cc(F)c(F)cc1F [Example 2, (R)-7-[3-Amino-4-(2,4,5-trifluorophenyl)butanoyl]-3-trifluoromethyl-5,6,7,8-tetrahydro-imidazo[1,5-a]pyrazine-1-carboxylic acid phosphate] | 0.015 | 400 | 185 |  |  |  |  |  |  |  |  |  |  |  |  | Solubility Value, 0.1% HCl ([1]; 0.1% hydrochloric acid, phosphate): 32.5 mg/mL; Solubility Value, PBS (pH 7.4) ([1]; PBS pH 7.4, phosphate): 20.2 mg/mL; Solubility Value, methanol ([1]; methanol, phosphate): 37.5 mg/mL; Solubility Value, water ([1]; water, phosphate): 26.1 mg/mL; pharmacokinetics and bioavailability (conclusion in words) ([2]; compared with other compounds): improved obviously; F ([2]; phosphate): 8.63%; AUC(0-t) [2, 3]: 198.1 ± 57.4 ng·h/mL; CL/F [2, 3]: 270 ± 75.8 mL/min/kg; Cmax [2, 3]: 66.6 ± 36.4 ng/mL; MRT [2, 3]: 4.05 ± 3.66 h; Tmax [2, 3]: 0.92 ± 0.58 h; t1/2 [2, 3]: 1.69 ± 1.24 h; Hypoglycemic rate of blood sugar of 30 minutes after administration (normal ICR mice; phosphate, 10 mg/kg): 29.96% |
| N[C@@H](CC(=O)N1CCn2c(C(F)(F)F)nc(C(=O)O)c2C1)Cc1cc(F)c(F)cc1F [Example 3, (R)-7-[3-Amino-4-(2,4,5-trifluorophenyl)butanoyl]-3-trifluoromethyl-5,6,7,8-tetrahydro-imidazo[1,5-a]pyrazine-1-carboxylic acid] | 0.013 | 236 | 125 | 20.5 (≈ 45.5 mM) | 7.0 | 32.7 (≈ 72.6 mM) | 9.2 (≈ 20.4 mM) | 58.3 ± 17.3 | 862 ± 267 | 13.4 ± 5.6 | 2.54 | 25.60 |  |  |  | half-life ([2]; both sexes, SD, rat, plasma, iv, 3 mg/kg, tail vein injection 3.0 mg/kg): 2.35 ± 1.9 h; AUC(0-t) ([2]; both sexes, SD, rat, plasma, iv, 3 mg/kg, tail vein injection 3.0 mg/kg, read-out: AUC0-t): 2300 ± 353 ng·h/mL; MRT ([2]; both sexes, SD, rat, plasma, iv, 3 mg/kg, tail vein injection 3.0 mg/kg, read-out: MRT): 0.22 ± 0.06 h; MRT ([2]; intragastric 3.0 mg/kg): 4.45 ± 1.01 h; Tmax ([2]; intragastric 3.0 mg/kg): 1.00 ± 0.00 h; t1/2 ([2]; intragastric 3.0 mg/kg): 2.73 ± 0.73 h; CL/F ([2]; tail vein injection 3.0 mg/kg): 22.2 ± 3.33 mL/min/kg |
| N[C@@H](CC(=O)N1CCn2c(C(F)(F)F)nc(C(=O)[O-])c2C1)Cc1cc(F)c(F)cc1F.[Na+] [Example 4, Sodium (R)-7-[3-amino-4-(2,4,5-trifluorophenyl)butanoyl]-3-trifluoromethyl-5,6,7,8-tetrahydro-imidazo[1,5-a]pyrazine-1-carboxylate] | 0.022 | 77.3 | 42.3 |  |  |  |  |  |  |  | 2.90 |  | 2.65 ± 0.94 | 4.3 ± 0.6 | 1.75 ± 0.96 | solubility ([1]; 0.1% hydrochloric acid, simulated gastric fluid, 0.1% hydrochloric acid, read-out: Solubility Value, 0.1% HCl): 94.8 mg/mL; solubility ([1]; methanol, organic solvent or mixture, methanol, read-out: Solubility Value, methanol): 46.7 mg/mL; solubility ([1]; phosphate buffer solution (PBS), pH 7.4, aqueous buffer, PBS pH 7.4, read-out: Solubility Value, PBS (pH 7.4)): 57.4 mg/mL; solubility ([1]; water, read-out: Solubility Value, water): 43.5 mg/mL; AUC(0-t) ([2]; both sexes, SD, rat, plasma, po, 3 mg/kg, intragastric 3.0 mg/kg, read-out: AUC0-t): 66.6 ± 10.6 ng·h/mL; CL/F ([2]; both sexes, SD, rat, plasma, po, 3 mg/kg, intragastric 3.0 mg/kg, read-out: CL/F (converted)): 728 mL/min/kg; Cmax ([2]; both sexes, SD, rat, plasma, po, 3 mg/kg, intragastric 3.0 mg/kg, read-out: Cmax): 14.2 ± 2 ng/mL; Vd/F ([2]; both sexes, SD, rat, plasma, po, 3 mg/kg, intragastric 3.0 mg/kg, read-out: Vz/F): 164 ± 56 L/kg; Hypoglycemic rate of blood sugar of 30 minutes after administration (normal ICR mice): 9.49% |
| N[C@@H](CC(=O)N1CCn2c(C(F)(F)F)nc(C(=O)O)c2C1)Cc1cc(F)c(F)cc1F [Example 9, 2-Hydroxyethylammonium (R)-7-[3-amino-4-(2,4,5-trifluorophenyl)butanoyl]-3-trifluoromethyl-5,6,7,8-tetrahydro-imidazo[1,5-a]pyrazine-1-carboxylate] | 0.012 | 114 | 128 | 12.6 | 0.3 | 35.2 | 1.0 | 93.2 ± 36.4 | 548 ± 167 | 25.1 ± 13.9 | 4.06 | 27.56 | 3.18 ± 0.71 | 4.34 ± 0.66 | 1.25 ± 0.5 |  |
